Reference: patent US12268702B2, “Antitumor pharmaceutical composition comprising azvudine and chemotherapeutic agent” (HENAN GENUINE BIOTECH CO., LTD., priority 2023, dated 2025)

How the values were obtained:
Type in all cases: in vivo
[1] = system: OVCAR-8 human ovarian cancer model; assay: OVCAR-8 human ovarian cancer subcutaneous xenograft tumor model; settings: azvudine 1 mg/kg, paclitaxel 15 mg/kg, avastin 10 mg/kg, combinations 1 + 15 and 1 + 10 mg/kg
Description: OVCAR-8 cells were cultured in RPMI1640 medium containing 10% fetal bovine serum. OVCAR-8 cells in the exponential growth phase were collected, resuspended in PBS to an appropriate concentration and mixed with Matrigel at a ratio of 1:1. The resulting mixture was used for subcutaneous inoculation of tumor in mice.
1×10^7 OVCAR-8 cells were inoculated subcutaneously on the right side of female mice. When the average tumor volume achieved 174.25 mm^3, the mice were randomly divided into groups according to tumor size.
The experimental protocols for animal experiments in this experiment were reviewed and approved by the CrownBio IACUC committee. During the experiment, the animal experiments were performed in accordance with the requirements of AAALAC. After tumor inoculation was completed, the impact of tumor growth and treatment on normal behavior of animals was routinely monitored, specifically the activity of experimental animals, food intake and water intake, body weight gain or loss (body weight was measured twice a week), eye, hair and other abnormalities. The clinical symptoms observed during the experiment were recorded in the original data. The tumor volume was calculated according to the following formula: tumor volume (mm^3)=½×(a×b^2) (where a represents long diameter and b represents short diameter).
Relative tumor proliferation rate, T/C %, refers to the percentage value of the relative tumor volume or tumor weight of the treatment group and the control group at a certain time point, which was calculated as follows: • T/C %=TRTV/CRTV×100% (TRTV: the average RTV of the treatment group; CRTV: the average RTV of the vehicle control group; RTV=Vt/V0, where V0 is the tumor volume of the animal when grouped, and Vt is the tumor volume of the animal after treatment); • or T/C %=TTW/CTW×100% (TTW: the average tumor weight of the treatment group at the end of the experiment; CTW: the average tumor weight of the vehicle control group at the end of the experiment).
Relative tumor inhibition rate, TGI (%), was calculated according to the formula as follows: TGI %=(1−T/C)×100%. (T and C are the relative tumor volumes (RTV) or tumor weights (TW) of the treatment group and the control group at a specific time point).
To compare tumor volumes of different treatment groups on a given day, first the assumption of homogeneity of variance among all groups was tested using the Bartlett test. When the p-value of Bartlett's test was not less than 0.05, whether all group means were equal was tested using one-way ANOVA. If the p-value of the one-way ANOVA was less than 0.05, pairwise comparisons among all groups were conducted using Tukey's HSD test, or pairwise comparisons between each treatment group and control group were conducted using Dunnett's t-test. When the p-value of Bartlett's test was less than 0.05, whether the medians of all groups were equal was tested using Kruskal Wallis test. If the p-value of the Kruskal Wallis test was less than 0.05, pairwise comparisons among all groups or between each treatment group and control group were conducted using Conover test, and the corresponding p-value correction was performed according to the number of groups in the multiple test.

[2] = system: LoVo xenograft tumor model; assay: LoVo human colon cancer subcutaneous xenograft tumor model; settings: 21st day of administration, azvudine 1 mpk, capecitabine 400 mpk, combination 1 + 400 mpk; for Tumor volume (mm^3): BALB/c nude mice, p.o. QD x 3 weeks
Description: (§1) Human colon cancer cells LoVo (Cat. No.: ECACC-87060101) were cultured in vitro as a monolayer in F12K medium containing 10% fetal bovine serum, 100 U/mL penicillin and 100 μg/mL streptomycin, in a 37° C. and 5% CO2 incubator. The cells were routinely digested with trypsin-EDTA and passaged twice a week. When the cell saturation reached 80%-90% and the cell number achieved the requirement, the cells were collected, counted and inoculated.
0.1 mL)(10×10^6) of LoVo cells were subcutaneously inoculated on the right back of each mouse. The grouping administration was started when the average tumor volume reached about 147 mm^3.
The tumor volume changes and the tumor weight changes in each group (on the 21st day of administration) after administration of test drugs for treating BALB/c nude mice with Lovo cell subcutaneous xenograft tumor are shown in Table 5 and Table 6 respectively.

[3] = system: A2058 xenograft tumor model; assay: Human melanoma A2058 cell subcutaneous xenograft tumor model; settings: azvudine 1 mg/kg, dacarbazine 60 mg/kg, combination 1 + 60 mg/kg
Description: as §1, with “melanoma” for “colon cancer”, “A2058” for “LoVo”, “CRL-11147)” for “ECACC-87060101)”, “DMEM” for “F12K”
0.2 mL (5×10^6) of A2058 cells were added with Matrigel, and the mixture was subcutaneously inoculated on the right back of each mouse. The grouping administration was started when the average tumor volume reached about 136 mm^3.

[4] = system: MOLT4 xenograft tumor model; assay: Human acute lymphoblastic leukemia MOLT4 cell subcutaneous xenograft tumor model
Description: Human acute lymphoblastic leukemia cells MOLT4 (Cat. No.: ECACC-85011413) were in vitro suspended and cultured in RPMI 1640 medium containing 10% fetal bovine serum, 100 U/mL penicillin and 100 μg/mL streptomycin, in a 37° C. and 5% CO2 incubator. When the cell saturation achieved 80%-90% and the cell number reached the requirement, the cells were collected, counted and inoculated.
0.2 mL (10×10^6) of MOLT4 cells (added with Matrigel at a volume ratio of 1:1) were subcutaneously inoculated on the right back of each mouse. The grouping administration was started when the average tumor volume reached about 148 mm^3.
The changes of tumor volume and tumor weight in each group after administration of test drugs for treating SCID Beige mice with MOLT4 cell subcutaneous xenograft tumor are shown in Table 10 and Table 11.

[5] = based on tumor volume, 14th day
[6] = 28th day after start of administration, azvudine 1 mg/kg
[7] = based on tumor volume, 28th day, azvudine 2 mg/kg in Table 10, cyclophosphamide 50 mg/kg, combination 1 + 50 mg/kg

[N-]=[N+]=N[C@]1(CO)O[C@@H](n2ccc(N)nc2=O)[C@@H](F)[C@@H]1O [Azvudine, azvudine]
T/C (%) ([1]; 34th day after grouping): 81.91%
TGI (%) ([1]; 34th day after grouping): 18.09%
Tumor volume (x ± S) ([1]; 34th day after grouping): 460.67 ± 105.37(6)
average tumor volume ([1]; 34th day of administration): 460.67 mm^3
Tumor volume (mm^3) [2]: 902 ± 163 mm^3
Tumor volume (mm^3) ([2]; listed as azvudine): 902 mm^3
Tumor weight [2]: 0.937 ± 0.142 g
T/C (%) ([2]; based on tumor volume): 62.00%
TGI (%) ([2]; based on tumor volume): 43.40%
T/C (%) ([2]; based on tumor weight): 66.37%
Tumor volume (mm^3) on the 14th day ([3]; 14th day of administration, listed as azvudine): 2253 mm^3
T/C (%) [3, 5]: 79.67%
TGI (%) [3, 5]: 18.22%
T/C [4, 6]: 33.89
TGI [4, 6]: 69.73%
Tumor volume [4, 6]: 979 mm^3
Tumor volume (mm^3) on the 28th day ([4]; 28th day of administration, SCID Beige mice, QD x 4 weeks, azvudine 2 mg/kg in Table 10, cyclophosphamide 50 mg/kg i.p., combination 1 + 50 mg/kg): 986 ± 179 mm^3
Tumor weight (g) (On the 28th day) ([4]; 28th day of administration, azvudine 1 mg/kg, cyclophosphamide 50 mg/kg, combination 1 + 50 mg/kg): 1.168 ± 0.145 g
T/C (%) [4, 7]: 33.55%
TGI (%) [4, 7]: 69.49%
T/Cweight (%) ([4]; based on tumor weight, 28th day, azvudine 1 mg/kg, cyclophosphamide 50 mg/kg, combination 1 + 50 mg/kg): 39.31%
